This note sets out measurements from patent US20250002493A1, “PYRIDONE COMPOUND AND PREPARATION METHOD THEREFOR, PHARMACEUTICAL COMPOSITION AND USE” (NANJING CHINA-AUSTRALIA INSTITUTE OF TRANSLATIONAL MEDICINE …, priority 2022, published 2025).

The subject of experiment [1] is SK-OV-3 human ovarian cancer cells. The experiment in a line: WST-8 cell proliferation assay, SK-OV-3. It is filed as cell-based. The note with it: 72 hours, read-out: SKOV-3 IC50. The method, then:
(§1) The effects of the compounds provided by the present invention on the proliferation of different cancer cell lines were tested using the WST-8 assay kit. This method is based on the reduction of WST-8 by dehydrogenase in live cells to form a highly water-soluble yellow Formazan dye. Cells were seeded in a 96-well plate and cultured with the test compounds at 37° C. under 5% CO2 for 72 hours. Afterwards, 10% (v/v) WST-8 was added, and the samples were incubated for an additional 2-3 hours. The absorbance of the samples was measured at 450 nm using a Tecan microplate reader, and the concentration of the compound that inhibited 50% of cell proliferation (IC50, nM) was calculated. The activity of the compounds provided by the present invention was determined in three cancer cell lines: MDA-MB-231 human breast cancer cells, SK-OV-3 human ovarian cancer cells, and PANC1 human pancreatic cancer.
Background: Tetrazolium dyes change colour on reduction, which living cells bring about.

The test system of experiment [2] is MDA-MB-231 human breast cancer cells. The experiment is described as follows: WST-8 cell proliferation assay, MDA-MB-231. It is filed as cell-based. The settings on record: 72 hours. The method, then:
as §1

The target of experiment [3] is BIR3 domain of human cIAP2 (residues 236-342) (Homo sapiens (Human), UniProt Q13489). The experiment is described as follows: Fluorescence polarization competitive binding to cIAP2 BIR3. The settings on record: FP, peptide probe 5 nM, cIAP2 BIR3 10 nM, 1 hour room temperature. The method, then:
(§2) The binding affinity of the compounds provided by the present invention to IAP proteins was determined using a fluorescence polarization method (Nikolovska-Colesak et al, Anal. Biochem. 2004, 332:261-73). The recombinant BIR3 domains of human XIAP (residues 238-358), human cIAP1 (residues 255-364) and human cIAP2 (residues 236-342) fusing GST-tags were expressed in E. coli and purified using glutathione agarose 4B affinity chromatography and gel filtration chromatography. A 5-Fam fluorescently modified peptide probe (AbuRPFK(5-Fam)-NH2) was used to test the competitive binding ability of the compounds to the BIR3 domains of XIAP, cIAP1 and cIAP2. The peptide probe (5 nM), XIAP BIR3 (30 nM) or cIAP1 BIR3 (5 nM) or cIAP2 BIR3 (10 nM), and serial diluted compounds were mixed in a test buffer (100 mM potassium phosphate pH 7.5, 100 μg/ml bovine gamma globulin, 0.02% sodium azide, and 1 mM DTT). After incubating the samples at room temperature for 1 hour, the fluorescence polarization values were read using a Tecan microplate reader (FP excitation wavelength 485 nm, […] wavelength 530 nm). The IC50 value was obtained by fitting the curve using nonlinear least square regression with the Graphpad Prism software. The inhibition constant Ki, values were calculated using the Equation Ki, [I]50/([L]50/Kd+[P]0/Kd+1).
(In general: In fluorescence polarisation assays a small probe gives low polarisation when free and higher when bound to something large.)

In experiment [4] the target is BIR3 domain of human XIAP (residues 238-358) (Homo sapiens (Human), UniProt P98170). The experiment in a line: Fluorescence polarization competitive binding to XIAP BIR3. The note with it: FP, peptide probe 5 nM, XIAP BIR3 30 nM, 1 hour room temperature. The method, then:
as §2

Experiment [5] concerns PANC1 human pancreatic cancer. The experiment is described as follows: WST-8 cell proliferation assay, PANC1. It is filed as cell-based. The settings on record: PANC-1, 72 hours. How it is done: as §1
In the next experiment the test system is MDA-MB-231 cancer cells. The experiment is described as follows: Inhibitor-induced apoptosis, flow cytometry with Annexin V and propidium iodide. The format is cell-based, human. The settings on record: 3 hours. The method, then: After treating the cells with 10 nM and 100 nM concentrations of the compounds for 3 hours, the induction of apoptosis was analyzed using flow cytometry with Annexin V and propidium iodide staining.

In experiment [6] the target is BIR3 domain of human cIAP1 (residues 255-364) (Homo sapiens (Human), UniProt Q13490). The experiment in a line: Fluorescence polarization competitive binding to cIAP1 BIR3. The settings on record: FP, peptide probe 5 nM, cIAP1 BIR3 5 nM, 1 hour room temperature. The method, then: as §2
Chain of BIR3 domain of human cIAP1 (residues 255-364) (Q13490 255-364): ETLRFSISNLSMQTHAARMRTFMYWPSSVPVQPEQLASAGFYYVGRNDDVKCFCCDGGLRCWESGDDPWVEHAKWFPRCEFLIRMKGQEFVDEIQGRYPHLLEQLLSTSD

Chain of BIR3 domain of human cIAP2 (residues 236-342) (Q13489 236-342): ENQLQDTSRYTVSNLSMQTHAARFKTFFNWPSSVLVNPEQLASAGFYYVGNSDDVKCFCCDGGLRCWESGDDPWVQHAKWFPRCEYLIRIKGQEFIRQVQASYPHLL
Chain of BIR3 domain of human XIAP (residues 238-358) (P98170 238-358): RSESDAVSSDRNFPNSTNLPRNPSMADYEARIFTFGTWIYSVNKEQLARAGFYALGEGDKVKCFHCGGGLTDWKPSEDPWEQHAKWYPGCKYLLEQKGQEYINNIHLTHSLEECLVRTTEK

As for `CN[C@@H](C)C(=O)N[C@H](C(=O)N1CC(C)(C)c2cc(=O)n(Cc3ccc(F)cc3)cc21)C(C)(C)C` [Compound I-2-33], the figures for the IC50 in experiment [1], in experiment [2] and in experiment [5] were 27 nM, 24 nM and 192 nM, respectively. Further, the inhibition constant Ki (usually the dissociation constant of the complex between target and ligand, obtained from inhibition or displacement) in experiment [3] is 7.9 nM; in experiment [4], 288 nM; in experiment [6], 1.9 nM. In addition, the entries for the “Proportion of apoptotic cells” value with MDA-MB-231 cancer cells (Drug concentration 10 nM) and in the experiment on MDA-MB-231 cancer cells (Drug concentration 100 nM) were 23% and 45%, respectively.

On to `CN[C@@H](C)C(=O)N[C@H](C(=O)N1CCc2[nH]c(=O)c(Cc3ccc(F)cc3F)cc21)C(C)(C)C` [Compound I-4-2], for which the IC50 (in general, the point on the concentration scale where inhibition reaches its midpoint) in experiment [1] was found to be 1 nM; in experiment [2], 4 nM; in experiment [5], 16 nM. Further, the Ki in experiment [3] was found to be 2.4 nM; in experiment [4], 9.4 nM; in experiment [6], 1.3 nM. The “Proportion of apoptotic cells” value with MDA-MB-231 cancer cells (Drug concentration 10 nM) was determined as 41%; in the experiment on MDA-MB-231 cancer cells (Drug concentration 100 nM), 54%.

Regarding `CN[C@@H](C)C(=O)N[C@H](C(=O)N1CCc2cc(=O)n(Cc3ccc(F)cc3)cc21)C(C)(C)C` [Compound I-2-11], the results for the IC50 in experiment [1], in experiment [2] and in experiment [5] were 4 nM, 5 nM and 38 nM, respectively. Also, the figures for the Ki in experiment [3], in experiment [4] and in experiment [6] were 1.7 nM, 31.4 nM and 0.7 nM, respectively. For the same molecule, the entries for the “Proportion of apoptotic cells” value with MDA-MB-231 cancer cells (Drug concentration 10 nM) and in the experiment with MDA-MB-231 cancer cells (Drug concentration 100 nM) were 35% and 48%, respectively.

As to `CN[C@@H](C)C(=O)N[C@H](C(=O)N1CCc2c1cc(Cc1ccc(F)cc1F)c(=O)n2C)C(C)(C)C` [Compound I-3-3], the figures for the IC50 in experiment [1], in experiment [2] and in experiment [5] were 1 nM, 2 nM and 37 nM, respectively. The values for the Ki in experiment [3], in experiment [4] and in experiment [6] were 2.2 nM, 13.7 nM and 1.4 nM, respectively. Also, the results for the “Proportion of apoptotic cells” value in the experiment with MDA-MB-231 cancer cells (Drug concentration 10 nM) and in the experiment with MDA-MB-231 cancer cells (Drug concentration 100 nM) were 43% and 55%, respectively.

On to `CN[C@@H](C)C(=O)N[C@H](C(=O)N1CC(C)(C)c2c1cc(Cc1ccc(F)cc1F)c(=O)n2C)C(C)(C)C` [Compound I-3-7], for which the Ki in experiment [3] came out at 5.2 nM; in experiment [4], 45.2 nM; in experiment [6], 1.6 nM.

For the molecule `CCn1c2c(cc(Cc3ccc(F)cc3F)c1=O)N(C(=O)[C@@H](NC(=O)[C@H](C)NC)C(C)(C)C)CC2` [Compound I-3-6], the Ki is 1.6 nM in experiment [3], 12.3 nM in experiment [4] and 0.8 nM in experiment [6].

For `CN[C@@H](C)C(=O)N[C@H](C(=O)N1CC(C)(C)c2cc(=O)n(Cc3ccc(F)cc3F)cc21)C(C)(C)C` [Compound I-2-26], the IC50 in experiment [1] came to 7 nM; in experiment [2] it was 21 nM; in experiment [5], 89 nM. For the same molecule, the values for the inhibitory constant (Ki) in experiment [3], in experiment [4] and in experiment [6] were 6.9 nM, 70.9 nM and 1.4 nM, respectively. Further, the results for the “Proportion of apoptotic cells” value in the experiment with MDA-MB-231 cancer cells (Drug concentration 10 nM) and in the experiment with MDA-MB-231 cancer cells (Drug concentration 100 nM) were 32% and 47%, respectively.

On to `CN[C@@H](C)C(=O)N[C@H](C(=O)N1CCc2cc(=O)n(Cc3ccc(F)cc3O)cc21)C(C)(C)C` [Compound I-2-23], for which the IC50 was 5 nM in experiment [1], 9 nM in experiment [2] and 67 nM in experiment [5]. The Ki in experiment [3] worked out at 2.3 nM; in experiment [4], 53.6 nM; in experiment [6], 1 nM. Also, the “Proportion of apoptotic cells” value with MDA-MB-231 cancer cells (Drug concentration 10 nM) was determined as 35%; in the experiment with MDA-MB-231 cancer cells (Drug concentration 100 nM) it was 50%.

Consider `CN[C@@H](C)C(=O)N[C@H](C(=O)N1CCc2cc(=O)n(Cc3ccc(F)cc3F)cc21)C(C)(C)C` [Compound I-2-20], for which the results for the IC50 in experiment [1], in experiment [2] and in experiment [5] were 1 nM, 3 nM and 33 nM, respectively. Further, the Ki in experiment [3] came to 1.8 nM; in experiment [4] it was 21.5 nM; in experiment [6], 1 nM. Moreover, the “Proportion of apoptotic cells” value with MDA-MB-231 cancer cells (Drug concentration 10 nM) amounted to 39%; with MDA-MB-231 cancer cells (Drug concentration 100 nM), 53%.

Turning to `CN[C@@H](C)C(=O)N[C@H](C(=O)N1CCc2[nH]c(=O)c(Cc3ccc(F)cc3)cc21)C(C)(C)C` [Compound I-4-3], the inhibition constant (Ki) in experiment [3] was 1.9 nM; in experiment [4], 8.2 nM; in experiment [6], 1 nM.

Turning to `CN[C@@H](C)C(=O)N[C@H](C(=O)N1CCc2c1cc(Cc1ccc(F)cc1)c(=O)n2C)C1CCCCC1` [Compound I-3-1, (S)-N-((S)-1-cyclohexyl-2-(6-(4-fluorobenzyl)-4-methyl-5-oxo-2,3,4,5-tetrahydro-1H-pyrrolo[3,2-b]pyridine-1-yl)-2-oxyethyl)-2-(methylamino)propanamide], the IC50 in experiment [1] worked out at 4 nM; in experiment [2], 5 nM; in experiment [5], 58 nM. The figures for the Ki in experiment [3], in experiment [4] and in experiment [6] were 2.6 nM, 30.7 nM and 1.2 nM, respectively. The “Proportion of apoptotic cells” value with MDA-MB-231 cancer cells (Drug concentration 10 nM) came out at 36%; in the experiment with MDA-MB-231 cancer cells (Drug concentration 100 nM), 48%.

Consider `CN[C@@H](C)C(=O)N[C@H](C(=O)N1CCc2c1cc(Cc1ccc(F)cc1)c(=O)n2C)C(C)(C)C` [Compound I-3-2], for which the IC50 came out at 2 nM in experiment [1], 2 nM in experiment [2] and 43 nM in experiment [5]. The Ki in experiment [3] was 2.2 nM; in experiment [4] it was 18.4 nM; in experiment [6], 1.2 nM. Moreover, the “Proportion of apoptotic cells” value with MDA-MB-231 cancer cells (Drug concentration 10 nM) is reported as 38%; with MDA-MB-231 cancer cells (Drug concentration 100 nM) it was 52%.

On to `CN[C@@H](C)C(=O)N[C@H](C(=O)N1CC(C)(C)c2cc(=O)n(Cc3ccc(F)cc3F)cc21)C1CCCCC1` [Compound I-2-27], for which the 50% inhibitory concentration (IC50) in experiment [1] turned out to be 19 nM; in experiment [2], 18 nM; in experiment [5] it was 96 nM. Further, the Ki in experiment [3] amounted to 5.7 nM; in experiment [4], 208 nM; in experiment [6] it was 1.9 nM. Besides, the “Proportion of apoptotic cells” value in the experiment on MDA-MB-231 cancer cells (Drug concentration 10 nM) was determined as 31%; with MDA-MB-231 cancer cells (Drug concentration 100 nM) it was 46%.

As to `[2H]C([2H])([2H])N[C@@H](C)C(=O)N[C@H](C(=O)N1CCc2cc(=O)n(Cc3ccc(F)cc3)cc21)C1CCCCC1` [Compound I-2-15], the IC50 stood at 12 nM in experiment [1], 9 nM in experiment [2] and 64 nM in experiment [5]. For the same molecule, the Ki is 4 nM in experiment [3], 76.9 nM in experiment [4] and 1 nM in experiment [6].

Regarding `CN[C@@H](C)C(=O)N[C@H](C(=O)N1CCc2c1cc(Cc1ccc(F)cc1F)c(=O)n2CC(F)(F)F)C(C)(C)C` [Compound I-3-8], the figures for the inhibition constant Ki in experiment [3], in experiment [4] and in experiment [6] were 2.1 nM, 7.1 nM and 1.3 nM, respectively.

For the molecule `CN[C@@H](C)C(=O)N[C@H]1CN(C(=O)CC(C)C)CC[C@H]2CC[C@@H](C(=O)NC(c3ccccc3)c3ccccc3)N2C1=O` [SM-406, reference compound], the 50% inhibitory concentration (IC50) in experiment [1] was 40 nM; in experiment [2], 33 nM; in experiment [5], 241 nM. The Ki is 5.8 nM in experiment [3] and 25.2 nM in experiment [4]. For the same molecule, the “Proportion of apoptotic cells” value was determined as 6% in the experiment with MDA-MB-231 cancer cells (Drug concentration 10 nM) and 34% in the experiment with MDA-MB-231 cancer cells (Drug concentration 100 nM).

For the molecule `[2H]C([2H])([2H])N[C@@H](C)C(=O)N[C@H](C(=O)N1CCc2cc(=O)n(Cc3ccc(F)cc3F)cc21)C(C)(C)C` [Compound I-2-35], the results for the Ki in experiment [3], in experiment [4] and in experiment [6] were 2.6 nM, 33.4 nM and 1.2 nM, respectively.

Turning to `C[C@H](N)C(=O)N[C@H](C(=O)N1CCc2cc(=O)n(Cc3ccc(F)cc3F)cc21)C(C)(C)C` [Compound I-2-34], the values for the inhibition constant (Ki) in experiment [3], in experiment [4] and in experiment [6] were 1.5 nM, 24.1 nM and 1.1 nM, respectively.
